What was measured:
Format in all cases: in vivo
[1] = tested on: giant foxtail (Setaria faberii); assay: Test B pre-/postemergence plant response
Method in brief: (§1)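 Visual injury, 0–100 scale (100 = complete control), rated against controls after 13 to 15 days in greenhouse. Pre-emergence: seeds in loam/sand soil, treated at planting. Post-emergence: 1- to 4-leaf plants (2 to 18 cm) in peat/vermiculite medium. Compounds formulated in non-phytotoxic solvent with surfactant.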

[2] = tested on: cocklebur (Xanthium strumarium); assay: Test B pre-/postemergence plant response
Method in brief: as §1

wild oat (Avena fatua) = assay: Test B pre-/postemergence plant response
Method in brief: as §1

[3] = tested on: bermudagrass (Cynodon dactylon); assay: Test B pre-/postemergence plant response
Method in brief: as §1

soybean (Glycine max) = assay: Test B pre-/postemergence plant response
Method in brief: as §1

[4] = tested on: yellow nutsedge (Cyperus esculentus); assay: Test B pre-/postemergence plant response
Method in brief: as §1

[5] = tested on: downy bromegrass (Bromus tectorum); assay: Test B pre-/postemergence plant response
Method in brief: as §1

[6] = tested on: green foxtail (Setaria viridis); assay: Test B pre-/postemergence plant response
Method in brief: as §1

[7] = tested on: wheat (Triticum aestivum); assay: Test B pre-/postemergence plant response
Method in brief: as §1

[8] = tested on: velvetleaf (Abutilon theophrasti); assay: Test B pre-/postemergence plant response
Method in brief: as §1

[9] = tested on: blackgrass (Alopecurus myosuroides); assay: Test B pre-/postemergence plant response
Method in brief: as §1

[10] = tested on: morningglory (Ipomoea coccinea); assay: Test B pre-/postemergence plant response
Method in brief: as §1

[11] = tested on: johnsongrass (Sorghum halepense); assay: Test B pre-/postemergence plant response
Method in brief: as §1

kochia (Kochia scoparia) = assay: Test B pre-/postemergence plant response
Method in brief: as §1

[12] = tested on: ragweed (common ragweed, Ambrosia elatior); assay: Test B pre-/postemergence plant response
Method in brief: as §1

[13] = tested on: chickweed (Stellaria media); assay: Test B postemergence plant response
Method in brief: (§2)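 Visual ratings from 0 (no effect) to 100 (complete control), made against controls 13–15 days after treatment, kept in a greenhouse. Compounds were applied postemergence to potted plants at the 1- to 4-leaf stage (2–18 cm).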

[14] = tested on: canarygrass (Phalaris minor); assay: Test B postemergence plant response
Method in brief: as §2

[15] = tested on: windgrass (Apera spica-venti); assay: Test B postemergence plant response
Method in brief: as §2

[16] = 16 g ai/ha, Postemergence, 0 to 100 scale
[17] = 31 g ai/ha, postemergence, scale 0 to 100, 0 is no effect, 100 is complete control
[18] = 62 g ai/ha, postemergence, 0 is no effect, 100 is complete control, 13 to 15 days
[19] = Postemergence, 125 g ai/ha, visual rating after 13 to 15 days, scale 0 (no effect) to 100 (complete control)
[20] = Preemergence, 16 g ai/ha, scale 0 to 100, 0 no effect, 100 complete control
[21] = Preemergence, 31 g ai/ha, scale 0 to 100 (0 no effect, 100 complete control)
[22] = Preemergence, 62 g ai/ha, scale 0 to 100, 0 no effect, 100 complete control
[23] = Preemergence, 125 g ai/ha, scale 0 to 100, 0 no effect, 100 complete control

Question: Which results are given for `O=C1CCCC(O)=C1C(=O)c1cnc(-c2cccc(Br)c2)n(-c2ccccc2)c1=O` [Compound 69]?
Answer: Plant response rating, Foxtail, Giant [1, 16]: 80; Plant response rating, Foxtail, Giant [1, 17]: 95; Foxtail, Giant plant response rating (0 to 100 scale) [1, 18]: 98; Plant response rating, Foxtail, Giant [1, 19]: 98; Plant response rating, Foxtail, Giant [1, 20]: 0; Plant response rating, Foxtail, Giant [1, 21]: 5; Plant response rating, Foxtail, Giant [1, 22]: 75; Plant response rating, Foxtail, Giant [1, 23]: 90; Plant response rating, Cocklebur [2, 16]: 0; Plant response rating, Cocklebur [2, 17]: 0; Cocklebur plant response rating (0 to 100 scale) [2, 18]: 0; Plant response rating, Cocklebur [2, 19]: 20; Plant response rating, Cocklebur [2, 20]: 0; Plant response rating, Cocklebur [2, 21]: 0; Plant response rating, Cocklebur [2, 22]: 0; Plant response rating, Cocklebur [2, 23]: 10; Plant response rating, Oat, Wild (wild oat (Avena fatua); [16]): 50; Plant response rating, Oat, Wild (wild oat (Avena fatua); [17]): 60; Oat, Wild plant response rating (0 to 100 scale) (wild oat (Avena fatua); [18]): 80; Plant response rating, Oat, Wild (wild oat (Avena fatua); [19]): 85; Plant response rating, Oat, Wild (wild oat (Avena fatua); [20]): 0; Plant response rating, Oat, Wild (wild oat (Avena fatua); [21]): 0; Plant response rating, Oat, Wild (wild oat (Avena fatua); [22]): 0; Plant response rating, Oat, Wild (wild oat (Avena fatua); [23]): 0; Plant response rating, Bermudagrass [3, 16]: 85; Plant response rating, Bermudagrass [3, 17]: 98; Bermudagrass plant response rating (0 to 100 scale) [3, 18]: 98; Plant response rating, Bermudagrass [3, 19]: 98; Plant response rating, Bermudagrass [3, 20]: 90; Plant response rating, Bermudagrass [3, 21]: 98; Plant response rating, Bermudagrass [3, 22]: 100; Plant response rating, Bermudagrass [3, 23]: 100; Plant response rating, Soybean (soybean (Glycine max); [16]): 45; Plant response rating, Soybean (soybean (Glycine max); [17]): 80; Soybean plant response rating (0 to 100 scale) (soybean (Glycine max); [18]): 90; Plant response rating, Soybean (soybean (Glycine max); [19]): 98; Plant response rating, Nutsedge, Yellow [4, 16]: 5; Plant response rating, Nutsedge, Yellow [4, 17]: 5; Nutsedge, Yellow plant response rating (0 to 100 scale) [4, 18]: 10; Plant response rating, Nutsedge, Yellow [4, 19]: 40; Plant response rating, Nutsedge, Yellow [4, 20]: 0; Plant response rating, Nutsedge, Yellow [4, 21]: 0; Plant response rating, Nutsedge, Yellow [4, 22]: 0; Plant response rating, Nutsedge, Yellow [4, 23]: 0; Plant response rating, Bromegrass, Downy [5, 16]: 30; Plant response rating, Bromegrass, Downy [5, 17]: 40; Bromegrass, Downy plant response rating (0 to 100 scale) [5, 18]: 55; Plant response rating, Bromegrass, Downy [5, 19]: 70; Plant response rating, Bromegrass, Downy [5, 20]: 0; Plant response rating, Bromegrass, Downy [5, 21]: 0; Plant response rating, Bromegrass, Downy [5, 22]: 0; Plant response rating, Bromegrass, Downy [5, 23]: 0; Plant response rating, Foxtail, Green [6, 16]: 75; Plant response rating, Foxtail, Green [6, 17]: 95; Foxtail, Green plant response rating (0 to 100 scale) [6, 18]: 98; Plant response rating, Foxtail, Green [6, 19]: 100; Plant response rating, Foxtail, Green [6, 22]: 70; Plant response rating, Foxtail, Green [6, 23]: 85; Plant response rating, Wheat [7, 16]: 0; Plant response rating, Wheat [7, 17]: 5; Wheat plant response rating (0 to 100 scale) [7, 18]: 5; Plant response rating, Wheat [7, 19]: 10; Plant response rating, Wheat [7, 21]: 0; Plant response rating, Wheat [7, 22]: 0; Plant response rating, Wheat [7, 23]: 0; Plant response rating, Velvetleaf [8, 16]: 75; Plant response rating, Velvetleaf [8, 17]: 95; Velvetleaf plant response rating (0 to 100 scale) [8, 18]: 98; Plant response rating, Velvetleaf [8, 19]: 98; Plant response rating, Velvetleaf [8, 21]: 70; Plant response rating, Velvetleaf [8, 22]: 70; Plant response rating, Velvetleaf [8, 23]: 85; Plant response rating, Blackgrass [9, 16]: 0; Plant response rating, Blackgrass [9, 17]: 0; Blackgrass plant response rating (0 to 100 scale) [9, 18]: 0; Plant response rating, Blackgrass [9, 19]: 0; Plant response rating, Blackgrass [9, 20]: 0; Plant response rating, Blackgrass [9, 21]: 0; Plant response rating, Blackgrass [9, 22]: 0; Plant response rating, Blackgrass [9, 23]: 0; Plant response rating, Morningglory [10, 16]: 65; Plant response rating, Morningglory [10, 17]: 70; Morningglory plant response rating (0 to 100 scale) [10, 18]: 70; Plant response rating, Morningglory [10, 19]: 75; Plant response rating, Morningglory [10, 20]: 0; Plant response rating, Morningglory [10, 21]: 0; Plant response rating, Morningglory [10, 22]: 0; Plant response rating, Morningglory [10, 23]: 0; Plant response rating, Johnsongrass [11, 16]: 75; Plant response rating, Johnsongrass [11, 17]: 98; Johnsongrass plant response rating (0 to 100 scale) [11, 18]: 100; Plant response rating, Johnsongrass [11, 19]: 100; Plant response rating, Johnsongrass [11, 20]: 0; Plant response rating, Johnsongrass [11, 21]: 5; Plant response rating, Johnsongrass [11, 22]: 45; Plant response rating, Johnsongrass [11, 23]: 85; Plant response rating, Kochia (kochia (Kochia scoparia); [16]): 60; Plant response rating, Kochia (kochia (Kochia scoparia); [17]): 60; Kochia plant response rating (0 to 100 scale) (kochia (Kochia scoparia); [18]): 70; Plant response rating, Kochia (kochia (Kochia scoparia); [19]): 80; Plant response rating, Kochia (kochia (Kochia scoparia); [21]): 0; Plant response rating, Kochia (kochia (Kochia scoparia); [22]): 20; Plant response rating, Kochia (kochia (Kochia scoparia); [23]): 45; Plant response rating, Ragweed [12, 16]: 75; Plant response rating, Ragweed [12, 17]: 90; Ragweed plant response rating (0 to 100 scale) [12, 18]: 90; Plant response rating, Ragweed [12, 19]: 100; Plant response rating, Ragweed [12, 21]: 65; Plant response rating, Ragweed [12, 22]: 65; Plant response rating, Ragweed [12, 23]: 65; Plant response rating, Chickweed [13, 16]: 95; Plant response rating, Chickweed [13, 17]: 98; Chickweed plant response rating (0 to 100 scale) [13, 18]: 98; Plant response rating, Chickweed [13, 19]: 98; Plant response rating, Canarygrass [14, 16]: 0; Plant response rating, Canarygrass [14, 17]: 0; Canarygrass plant response rating (0 to 100 scale) [14, 18]: 0; Plant response rating, Canarygrass [14, 19]: 25; Plant response rating, Windgrass [15, 16]: 40; Plant response rating, Windgrass [15, 17]: 60; Windgrass plant response rating (0 to 100 scale) [15, 18]: 60; Plant response rating, Windgrass [15, 19]: 80

— patent US8952024B2, “Herbicidal pyrimidone derivatives” (E I du Pont de Nemours and Company, priority 2009, dated 2015)
